Laboratory results reported in article PMC7156724, “Potent BRD4 inhibitor suppresses cancer cell-macrophage interaction” (Nature Communications, 2020).
Where “and” joins values, the source holds several entries; their conditions need not be identical. Equal entries are not always repeated.

Columns and labels:
H526 tumors = test: Immunofluorescent staining of cleaved caspase 3 and Ki67 in H526 tumors; format: in vivo, mouse; details: treated H526 tumors, independent images
Procedure: Immunofluorescence staining of tumor sections was performed according to the manufacturer’s instructions. Slides were imaged using a Zeiss Axiovert 200 fluorescence microscope (Carl Zeiss MicroImaging; Thornwood, NY), and images were captured using Openlab3 software (Imprecision, Lexington, MA). Cleaved caspase 3, Ki67, CSF1, and CD68 positive cells were counted with ImageJ version 1.52s[58].
Supplementary Figure 10. NHWD-870 increased tumor apoptosis and inhibite d tumor proliferation.
(a,b) Immunofluorescent staining of cleaved caspase 3 (apoptotic cells, red) and E-Cadherin (cancer cells, […]
green) in vehicle, NHWD-870 or BMS-986158 treated H526 tumors from Figure 4a. Shown are […]
representative images of cleaved caspase 3 positive cells (a) and quantification of cleaved caspase 3 positive […]
cells (b). Scale bar is 30 μm. Data are presented as mean ± SEM from 6 independent images. p values were […]
calculated using two-tailed, unpaired t tests. **, p<0.01; ***, p<0.001. (c,d) Immunofluorescent staining of […]
Ki67 (proliferating cells, red) and E-Cadherin (cancer cells, green) in vehicle, NHWD-870 or BMS-986158 […]
treated H526 tumors from (Figure 4a). Shown are representative images of Ki67 positive cells (c) and […]
quantification of Ki67 positive cells (d). Scale bar is 30 μm. […]
independent images. p values were calculated using two-tailed, unpaired t tests. *, p<0.05; ***, p<0.001. […]

[1] = Body weight change of H526 SCLC tumor bearing mice; details: for Mouse body weight changes (%) from Day 0: 3mg/kg, QDx21D, 3 mg/kg
A375 human melanoma = A375 human melanoma xenograft tumor growth; format: in vivo, mouse; details: Fig.3e, Group 5, 1 mg/kg PO QD, 5 Days on, 2 Days off / week x3, individual animals
Text: PO, oral administration; QD, once daily; BID, twice daily. b–d Tumor growth curves for A2780 ovarian tumor (n = 5) (b), TMD8 large B cell lymphoma (n = 6) (c), and B16F10 melanoma (n = 5) (d) bearing mice treated with the indicated compounds once daily for 11-21 days. e, f Tumor growth curves for A375 melanoma (n = 6) (e), and patient-derived xenograft (PDX) of melanoma (n = 5) (f) bearing mice treated with the indicated compounds once daily (5 days on, 2 days off) for 21 days. For d–f, NHWD-870 used is NHWD-870-HCl synthesized using Suzuki coupling route. Data are presented as mean ± SEM in (a, b, d, f) and mean + SEM in (c, e). p values were calculated using two-tailed, unpaired t tests. *p < 0.05; **p < 0.01; ***p < 0.001. Source data are provided as a Source Data file.
4–6 weeks old female BALB/c nude mice were used for most experiments, with the exception of 6–8 weeks old female C57BL/6 mice were used for B16F10 experiments, and 6–8 weeks old male BALB/c nude mice and SD rats were used for pharmacokinetic experiments. All animals were purchased from Shanghai SIPPR-Bk Lab Animal Co., Ltd. All animals were housed under a regimen of 12 h light/12 h dark cycles and specific pathogen-free conditions. 5×10^6 NCI-H526, ES-2, MDA-MB231, A2780, A375, B16F10, and TMD-8 cells (0.1 ml) were injected subcutaneously into female nude mice. The melanoma patient-derived xenograft model was derived from a human melanoma sample (BRAF, NARS and NF1 wild type, and p53 mutant) removed from a patient in Xiangya Hospital. Surgically removed tumor fragments were implanted subcutaneously into female NSG mice. When the tumors grew to ~1000 mm^3, they were harvested and cryopreserved or immediately re-implanted for expansion or experiments. Mouse body weight and tumor sizes were measured every 3 days. Once the tumors grew to 150–200 mm^3, mice were treated with the compounds as described in the Figures. 1 × 10^6 A2780 cells (1 ml) were injected into the abdominal cavity of nude mice. Ascitic volume and tumor weight were measured by an electronic balance. All the procedures were evaluated and approved by the Institutional Animal Care and Use Committee of Central South University and Yale University. […]
We apologize for not clearly labeling the experiments using compounds synthesized using Suzuki coupling method. In the revised manuscript, we modified the text to clearly mark the animal models in Fig 3d-f were tested using NHWD-870 synthesized using Suzuki […]
compared the activity of NHWD-870 synthesized using Stille coupling route with the NHWD-870 synthesized from Suzuki coupling route (Reviewer Figure 1). […]
activity and possible toxicity were identical.
Reviewer Figure 1 NHWD-870 synthesized through Stille or Suzuki route has similar properties in vivo. Tumor bearing mice were treated with 2mg/kg of the indicated compounds, orally administrated once daily for 21 days. Shown are tumor growth curves (a) and body weight change (b) for A375 melanoma bearing mice. […]
986158 in terms of potency, but apart from with the A375 melanocyte cell line, the advance seems relatively moderate. With such similar compounds, the pharmacokinetic properties and ability to accumulate at the desired site is often more important. Figure S6d (prev. Fig. 3d) in the previous

[2] = tested on: MDA-MB231 triple negative breast cancer (TNBC) cells; test: AlamarBlue assay, MDA-MB231; format: cell-based, human; details: for Cellular activity in TNBCs (MDA-MB231), alamarBlue: Fig.1f, replicates
Procedure: (§1) 3. AlamarBlue assay. AlamarBlue was made by resazurin sodium salt (Sigma, Cat
(§2) # 199303) dissolved in PBS.
(§3) NCI-H211, MDA-MB231 and A375 cells were plated in 96-well plates at approximately 30% confluence and left overnight to adhere. In the following day, […]
(§4) of treatment, 10 μl AlamarBlue reagent (0.3 mg/ml) was added to each well, and after 18h, the florescence intensity in each well was measured using a top-reading fluorescent plate reader with excitation at 530 nm and emission at 590 nm. […]

[3] = tested on: NCI-H211 small cell lung cancer (SCLC) cells; test: AlamarBlue assay, NCI-H211; format: cell-based; details: for Cellular activity in SCLCs (H211), alamarBlue: Fig.1e, replicates
Procedure: as §1, §2, §3, §4

Cc1nnn(C)c1-c1cnc2c3ccc(C(C)(C)O)cc3n([C@H](c3ccccc3)C3CCOCC3)c2c1 [BMS-986158, reference compound]
% of KI67 (Ki67 positive cells) (H526 tumors): 15% and 17% and 13% and 16% and 12% | Body weight change (%) ([1]; 3mg/kg,QD, day 0 and day 20 or the last available data point, individual mice): -8.559% and -23.2889% and -19.9501% and -12.3957% | Mouse body weight changes (%) from Day 0 ([1]; Day 3, individual mice): -2.33% and 1.06% and -4.40% and 1.07% and 0.98% and -1.46% | Mouse body weight changes (%) from Day 0 ([1]; Day 7, individual mice): -0.51% and -2.62% and -8.04% and -1.69% and -7.56% and -3.13% | Mouse body weight changes (%) from Day 0 ([1]; Day 10, individual mice): 0.08% and -4.17% and 1.65% and -15.38% and -17.07% and -3.30% | Mouse body weight changes (%) from Day 0 ([1]; Day 14, individual mice): -5.26% and -0.68% and -6.36% and 0.13% and -8.04% and -3.28% | Mouse body weight changes (%) from Day 0 ([1]; Day 17, individual mice): -6.72% and -1.06% and -1.00% and -0.31% and -23.29% and -5.11% | Mouse body weight changes (%) from Day 0 ([1]; Day 20, individual mice): -12.40% and -8.56% and -1.00% and 1.16% and -19.95% | body weight loss ([1]; H526 SCLC tumor bearing mice, 3mg/kg QD): about 11% | Tumor volume (A375 human melanoma; day 0): 150.774 mm3 and 118.553 mm3 and 191.653 mm3 and 150.802 mm3 and 127.386 mm3 and 173.315 mm3 | Tumor volume (A375 human melanoma; day 4): 190.606 mm3 and 233.18 mm3 and 278.289 mm3 and 235.064 mm3 and 184.498 mm3 and 135.54 mm3 | Tumor volume (A375 human melanoma; day 7): 243.772 mm3 and 508.815 mm3 and 374.344 mm3 and 456.749 mm3 and 169.114 mm3 and 146.329 mm3 | Tumor volume (A375 human melanoma; day 11): 541.178 mm3 and 982.065 mm3 and 955.744 mm3 and 627.932 mm3 and 275.862 mm3 and 357.353 mm3 | Tumor volume (A375 human melanoma; day 14): 840.395 mm3 and 1426.45 mm3 and 1137.31 mm3 and 1074.5 mm3 and 373.109 mm3 and 473.708 mm3 | Tumor volume (A375 human melanoma; day 18): 1260.47 mm3 and 1267.54 mm3 and 1188.69 mm3 and 1129.05 mm3 and 402.127 mm3 and 719.097 mm3 | Tumor volume (A375 human melanoma; day 21): 1603.7 mm3 and 1878.69 mm3 and 1789.35 mm3 and 1645.42 mm3 and 683.962 mm3 and 956.808 mm3 | Cellular activity in TNBCs (MDA-MB231), alamarBlue ([2]; concentration 0.15): 20.45 and 20.15 | Cellular activity in TNBCs (MDA-MB231), alamarBlue ([2]; concentration 0.6): 51.35 and 50.6 | Cellular activity in TNBCs (MDA-MB231), alamarBlue ([2]; concentration 1): 73.39 and 72.09 | Cellular activity in TNBCs (MDA-MB231), alamarBlue ([2]; concentration 1.5): 83.55 and 84.39 | Cellular activity in TNBCs (MDA-MB231), alamarBlue ([2]; concentration 2): 88.19 and 87.76 | Cellular activity in TNBCs (MDA-MB231), alamarBlue ([2]; concentration 2.5): 88.65 and 88.13 | Cellular activity in TNBCs (MDA-MB231), alamarBlue ([2]; concentration 3): 90.46 and 90.37 | Cellular activity in TNBCs (MDA-MB231), alamarBlue ([2]; concentration -0.3): 6.95 and 6.37 | Cellular activity in TNBCs (MDA-MB231), alamarBlue ([2]; concentration -0.9): 4.15 and 1.05 | IC50 ([2]; Homo sapiens, MDA-MB-231, 72 h, 72 h treatment, nM, read-out: IC50, cellular activity in MDA-MB231 (alamarBlue)): 5 nM | Cellular activity in SCLCs (H211), alamarBlue ([3]; concentration 0.0169701): 0.078 and 7.88 | Cellular activity in SCLCs (H211), alamarBlue ([3]; concentration 0.0398488): 0.019 and 6.06 | Cellular activity in SCLCs (H211), alamarBlue ([3]; concentration 0.137272): 0.036 and 13.2 | Cellular activity in SCLCs (H211), alamarBlue ([3]; concentration 0.614394): 28.16 and 35.58 | Cellular activity in SCLCs (H211), alamarBlue ([3]; concentration 1.09152): 74.14 and 79.88 | Cellular activity in SCLCs (H211), alamarBlue ([3]; concentration 1.56864): 88.17 and 88.8 | Cellular activity in SCLCs (H211), alamarBlue ([3]; concentration 2.04576): 89.55 and 89.3 | Cellular activity in SCLCs (H211), alamarBlue ([3]; concentration 3): 86.89 and 89.73 | Cellular activity in SCLCs (H211), alamarBlue ([3]; concentration column prints 2.52288): 87.67 and 88.48 | IC50 ([3]; Homo sapiens, NCI-H211, 72 h, 72 h treatment, nM, read-out: IC50, cellular activity in NCI-H211 (alamarBlue)): 6.6 nM
